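96-well plates; 48 h exposure; 5 concentrations. Endpoints by linear interpolation between flanking doses. Not reached: highest tested concentration assigned. GI50 = concentration required for 50% inhibition of growth. Definition used: TGI = concentration required for complete inhibition of growth.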
Columns and labels:
Test in all cases: DTP human tumour cell line panel, 48 h
[1] = tested on: A549 NSCLC
[2] = tested on: HOP-92 NSCLC
[3] = tested on: K-562 leukemia
[4] = tested on: LOX IMVI melanoma
[5] = tested on: MDA-MB-435
[6] = tested on: NCI/ADR-RES ovarian
[7] = tested on: OVCAR-8 ovarian
[8] = tested on: SN12C renal
[9] = tested on: TK-10 renal
[10] = tested on: A498 renal

In the case of `Cc1cc2nc(N3C(=O)/C(=C/c4cccc([N+](=O)[O-])c4)N=C3c3ccccc3)sc2cc1C`, the TGI [1] is reported as over 100 µM, the TGI [2] is reported as 58.2 µM and the TGI [3] is reported as over 100 µM. The TGI [4] was 55.8 µM, the TGI [5] was 36.5 µM and the TGI [6] was over 100 µM. For the same compound, the TGI [7] was 80.2 µM, the TGI [8] was over 100 µM and the TGI [9] was over 100 µM.

Compound `Cc1ccc(S(=O)(=O)N2CCCSCCSCCCSCC2)cc1` has a TGI [1] of over 100 µM, a TGI [2] of over 100 µM and a TGI [3] of over 100 µM. For the same compound, the TGI [4] was over 100 µM, the TGI [5] was over 100 µM and the TGI [6] was over 100 µM. It also gave a TGI [7] of over 100 µM, a TGI [8] of over 100 µM and a TGI [9] of over 100 µM.

`O=C1/C(=C\c2ccc([N+](=O)[O-])cc2)Sc2scc(-c3ccc(O)c(O)c3)[n+]21` gave a TGI [1] of 55.4 µM, a TGI [2] of 31.8 µM and a TGI [3] of over 100 µM. For the same compound, the TGI [4] was over 100 µM, the TGI [5] was 21.9 µM and the TGI [6] was 50.1 µM. For the same compound, the TGI [7] was 29.3 µM, the TGI [8] was 50 µM and the TGI [9] was 10.6 µM.

In the case of `O=c1[nH]c2cc(C(F)(F)F)ccc2nc1Cc1ccccc1`, the TGI [10] is reported as over 100 µM, the TGI [2] is reported as over 100 µM and the TGI [3] is reported as over 100 µM. For the same compound, the TGI [4] was over 100 µM, the TGI [5] was over 100 µM and the TGI [6] was over 100 µM. It also gave a TGI [7] of over 100 µM and a TGI [9] of over 100 µM.

In the case of `O=S(=O)(c1cc(Cl)ccc1Cl)N1CCN(c2ccc(Cl)c(Cl)c2)CC1`, the TGI [10] is reported as 56.8 µM, the TGI [1] is reported as over 100 µM and the TGI [2] is reported as 35.4 µM. The TGI [3] was over 100 µM, the TGI [4] was over 100 µM and the TGI [7] was 51.4 µM. The TGI [8] was over 100 µM and the TGI [9] was 54 µM.

Compound `CC(=O)N1c2ccccc2C(C)(C)OC1C(Cl)(Cl)Cl` (centres undefined) has a TGI [10] of over 100 µM, a TGI [1] of over 100 µM and a TGI [2] of 78.9 µM. The TGI [5] was over 100 µM, the TGI [6] was over 100 µM and the TGI [7] was over 100 µM. It also gave a TGI [8] of over 100 µM and a TGI [9] of over 100 µM.

In the case of `COc1cc([C@@H]2c3cc4c(cc3[C@H](OC3OC5COC(C(C)C)OC5C(O)C3O)C3COC(=O)[C@@H]32)OCO4)cc(OC)c1O` (some centres undefined), the TGI [10] is reported as 22.8 µM, the TGI [1] is reported as 21.8 µM and the TGI [2] is reported as 27.5 µM. It also gave a TGI [3] of over 100 µM, a TGI [4] of 30 µM and a TGI [5] of 19.2 µM. For the same compound, the TGI [6] was over 100 µM, the TGI [7] was 25.9 µM and the TGI [9] was 93.5 µM.

For `COc1ccc2c(c1)c1nn(CCN(C)C)c3ccc4c(=O)n(CCN(C)C)c(=O)n2c4c13`, the TGI [10] was 0.526 µM, the TGI [1] was 0.0759 µM and the TGI [3] was 0.448 µM. It also gave a TGI [4] of 0.469 µM, a TGI [5] of 0.166 µM and a TGI [6] of 0.277 µM. For the same compound, the TGI [7] was 0.175 µM, the TGI [8] was 0.517 µM and the TGI [9] was 0.696 µM.

`O=C(CCCN1CCC2(CC1)C(=O)NC(=O)N2c1ccccc1)c1ccc(F)cc1` gave a TGI [10] of over 100 µM, a TGI [1] of over 100 µM and a TGI [2] of over 100 µM. For the same compound, the TGI [4] was over 100 µM, the TGI [5] was over 100 µM and the TGI [6] was over 100 µM. For the same compound, the TGI [7] was over 100 µM, the TGI [8] was over 100 µM and the TGI [9] was over 100 µM.

`Cc1ccc(/C=C2\N=C(N3CCCCC3)NC2=O)cc1` gave a TGI [1] of over 100 µM, a TGI [2] of over 100 µM and a TGI [4] of over 100 µM. It also gave a TGI [5] of over 100 µM, a TGI [6] of over 100 µM and a TGI [7] of over 100 µM. The TGI [8] was over 100 µM and the TGI [9] was over 100 µM.

`CC(=O)Oc1ccccc1[C@H]1CC(=O)C[C@H](c2ccccc2OC(C)=O)C12C(=O)c1ccccc1C2=O` was tested, and the TGI [10] was over 100 µM, the TGI [2] was over 100 µM and the TGI [3] was 84 µM. The TGI [5] was 31.6 µM, the TGI [6] was over 100 µM and the TGI [7] was over 100 µM. It also gave a TGI [8] of over 100 µM.

`Cc1cc(S(N)(=O)=O)c(SCc2nc(N)nc(N(C)C)n2)cc1Cl` gave a TGI [10] of over 10 µM, a TGI [1] of over 10 µM and a TGI [2] of over 10 µM. It also gave a TGI [3] of over 10 µM, a TGI [4] of over 10 µM and a TGI [6] of over 10 µM. It also gave a TGI [7] of over 10 µM, a TGI [8] of over 10 µM and a TGI [9] of over 10 µM.

In the case of `CCOc1ccc(N2C(=O)C3c4[nH]c5ccccc5c4C4CCC(C(C)(C)C)CC4C3C2=O)cc1` (centres undefined), the TGI [10] is reported as over 100 µM, the TGI [1] is reported as over 100 µM and the TGI [2] is reported as over 100 µM. For the same compound, the TGI [3] was over 100 µM, the TGI [7] was over 100 µM and the TGI [8] was over 100 µM.

In the case of `O=C(O)CCC(NC(=O)c1ccc(Nc2nc3ccccc3nc2C(=O)O)cc1)C(=O)O` (centres undefined), the TGI [1] is reported as over 100 µM, the TGI [2] is reported as over 100 µM and the TGI [3] is reported as over 100 µM. The TGI [5] was over 100 µM, the TGI [6] was over 100 µM and the TGI [7] was over 100 µM. For the same compound, the TGI [8] was over 100 µM and the TGI [9] was over 100 µM.

`Cc1c(C(=O)CSc2nc3ccc([N+](=O)[O-])cc3[nH]2)c(=O)n(-c2ccccc2)n1C` gave a TGI [10] of over 100 µM, a TGI [1] of over 100 µM and a TGI [2] of over 100 µM. For the same compound, the TGI [4] was over 100 µM, the TGI [7] was over 100 µM and the TGI [8] was over 100 µM. The TGI [9] was over 100 µM.

`O=C(O)c1cccc(S(=O)(=O)NN2C(=O)CSC2c2ccccc2)c1` (centres undefined) showed a TGI [10] of over 100 µM, a TGI [1] of over 100 µM and a TGI [2] of over 100 µM. The TGI [3] was over 100 µM, the TGI [4] was over 100 µM and the TGI [5] was over 100 µM. It also gave a TGI [7] of over 100 µM, a TGI [8] of over 100 µM and a TGI [9] of over 100 µM.

Compound `COc1cc(N(CCC#N)CCC#N)ccc1/C(N=Nc1ccc(C)cc1)=N/NC(=O)c1cc(Br)ccc1O` has a TGI [1] of over 100 µM, a TGI [2] of 65.6 µM and a TGI [3] of over 100 µM. It also gave a TGI [4] of 59 µM, a TGI [5] of over 100 µM and a TGI [6] of over 100 µM. For the same compound, the TGI [7] was 88 µM, the TGI [8] was 54.9 µM and the TGI [9] was 82 µM.

Compound `CC(=O)OCC1OC(Nc2ccc3nc(C)n(-c4cccc(C)c4)c(=O)c3c2)C(OC(C)=O)C(OC(C)=O)C1OC(C)=O` (centres undefined) has a TGI [10] of over 62.5 µM, a TGI [3] of over 62.5 µM and a TGI [4] of over 62.5 µM. For the same compound, the TGI [5] was over 62.5 µM, the TGI [6] was over 62.5 µM and the TGI [7] was over 62.5 µM. It also gave a TGI [8] of over 62.5 µM and a TGI [9] of over 62.5 µM.

`Oc1c(C2=NNC(c3cccs3)C2)ccc2ccccc12` (centres undefined) showed a TGI [10] of 56.5 µM, a TGI [1] of over 100 µM and a TGI [2] of 81.5 µM. It also gave a TGI [3] of 44 µM, a TGI [5] of 40 µM and a TGI [6] of 82 µM. The TGI [7] was 94.2 µM, the TGI [8] was 38.1 µM and the TGI [9] was over 100 µM.

For `COc1cc(C2CC(c3cccc(Nc4ccncc4)c3)=NN2c2cc(Cl)cc(Cl)c2)cc(OC)c1OC` (centres undefined), the GI50 [10] was 1.27 µM, the TGI [10] was 4.22 µM and the GI50 [2] was 1.12 µM. It also gave a TGI [2] of 2.44 µM, a GI50 [5] of 1.61 µM and a TGI [5] of 3.15 µM. It also gave a GI50 [6] of 1.84 µM, a TGI [6] of 3.53 µM and a GI50 [8] of 1.66 µM. The TGI [8] was 3.14 µM.

`CSCCC(NCc1c(O)ccc2ccc(=O)oc12)C(=O)O` (centres undefined) was tested, and the TGI [1] was over 100 µM, the TGI [2] was over 100 µM and the TGI [3] was over 100 µM. For the same compound, the TGI [4] was over 100 µM, the TGI [5] was over 100 µM and the TGI [6] was over 100 µM. It also gave a TGI [7] of over 100 µM, a TGI [8] of over 100 µM and a TGI [9] of over 100 µM.

Compound `CCOC(=O)N1CCN(Cc2cc(=O)n3cc(C)ccc3n2)CC1` has a TGI [1] of over 100 µM, a TGI [2] of over 100 µM and a TGI [3] of over 100 µM. The TGI [4] was over 100 µM, the TGI [5] was over 100 µM and the TGI [6] was over 100 µM. It also gave a TGI [7] of over 100 µM, a TGI [8] of over 100 µM and a TGI [9] of over 100 µM.

Compound `Cc1ccc(S(=O)(=O)NC(=O)NC(CO)C(=O)O)cc1` (centres undefined) has a TGI [1] of over 100 µM, a TGI [2] of over 100 µM and a TGI [3] of over 100 µM. For the same compound, the TGI [4] was over 100 µM, the TGI [6] was over 100 µM and the TGI [7] was over 100 µM. It also gave a TGI [8] of over 100 µM and a TGI [9] of over 100 µM.
